According to patent EP0212404A1, “7-oxo-4-thia-1-azabicyclo [3.2.0] hept-2-ene derivatives” (HOECHST AKTIENGESELLSCHAFT, priority 1985, dated 1987):
Values after ≈ are worked out from the molar mass of the structure shown. Where two headings read alike, the source gives them in different places.

Assays:
Assay in all cases: agar dilution test (MIC)
Assay type in all cases: cell-based
Bac.subt. ATCC6633 = conditions: Mueller Hinton agar, 16 to 18 hours at 37°C, read-out: Minimum Inhibitory Concentration (MIC)
Description: (§1) The antimicrobial activity was determined by measuring the Minimum Inhibitory Concentration (MIC). The MIC of the compounds was determined by a standard test, the "agar dilution test" according to Lorian (Antibiotics in Laboratory Medicine, Williams and Wilkins, Baltimore/London 1980) as follows:
(§2) A two-fold decreasing concentration series of each compound was prepared in Petri dishes containing 15 ml of Mueller Hinton agar (Difco). One Petri dish containing only the Mueller Hinton agar served as control for bacterial growth. Each Petri dish was inoculated with a multi-point inoculator (Denley), which transferred 0.6µl of a 1:100 diluted 18 hours culture of the appropriate test bacterium. After 16 to 18 hours of incubation at 37°C the Petri dishes were examined for growth of bacteria. The lowest concentration of the compound which causes complete inhibition of growth is taken as the MIC except that the growth of a single colony or a haze is not taken as evidence of qrowth.

E.coli 055 = conditions: Escherichia coli, Mueller Hinton agar, 16 to 18 hours at 37°C, read-out: Minimum Inhibitory Concentration (MIC)
Description: as §1, §2

E.coli 1507E = conditions: Escherichia coli, read-out: Minimum Inhibitory Concentration (MIC)
Description: as §1, §2

E.coli DC0 = conditions: Escherichia coli, Mueller Hinton agar, 16 to 18 hours at 37°C, read-out: Minimum Inhibitory Concentration (MIC)
Description: as §1, §2

E.coli DC2 = conditions: Escherichia coli, Mueller Hinton agar, 16 to 18 hours at 37°C, read-out: Minimum Inhibitory Concentration (MIC)
Description: as §1, §2

E.coli KN126 = conditions: Escherichia coli, Mueller Hinton agar, 16 to 18 hours at 37°C, read-out: Minimum Inhibitory Concentration (MIC)
Description: as §1, §2

E.coli TEM = conditions: Escherichia coli, read-out: Minimum Inhibitory Concentration (MIC)
Description: as §1, §2

Ent.cloacae 1321E = conditions: Enterobacter cloacae, read-out: Minimum Inhibitory Concentration (MIC)
Description: as §1, §2

Ent.cloacae P99 = conditions: Enterobacter cloacae, Mueller Hinton agar, 16 to 18 hours at 37°C, read-out: Minimum Inhibitory Concentration (MIC)
Description: as §1, §2

Kl.aerog. 1082E = conditions: Mueller Hinton agar, 16 to 18 hours at 37°C, read-out: Minimum Inhibitory Concentration (MIC)
Description: as §1, §2

Kl.aerog. 1522E = conditions: read-out: Minimum Inhibitory Concentration (MIC)
Description: as §1, §2

Staph.aureus 285 = conditions: Staphylococcus aureus, Mueller Hinton agar, 16 to 18 hours at 37°C, read-out: Minimum Inhibitory Concentration (MIC)
Description: as §1, §2

Staph.aureus 503 = conditions: Staphylococcus aureus, Mueller Hinton agar, 16 to 18 hours at 37°C, read-out: Minimum Inhibitory Concentration (MIC)
Description: as §1, §2

Staph.aureus SG511 = conditions: Staphylococcus aureus, Mueller Hinton agar, 16 to 18 hours at 37°C, read-out: Minimum Inhibitory Concentration (MIC)
Description: as §1, §2

Str.faecium D = conditions: Enterococcus faecium, read-out: Minimum Inhibitory Concentration (MIC)
Description: as §1, §2

Str.pyogenes 308A = conditions: Streptococcus pyogenes, Mueller Hinton agar, 16 to 18 hours at 37°C, read-out: Minimum Inhibitory Concentration (MIC)
Description: as §1, §2

Str.pyogenes 77A = conditions: Streptococcus pyogenes, Mueller Hinton agar, 16 to 18 hours at 37°C, read-out: Minimum Inhibitory Concentration (MIC)
Description: as §1, §2

Salm.typh. MZII = conditions: Mueller Hinton agar, 16 to 18 hours at 37°C, read-out: Minimum Inhibitory Concentration (MIC)
Description: as §1, §2

[1] = E.coli 1507E, Mueller Hinton agar, 16 to 18 hours at 37°C
[2] = Ent.cloacae 1321E, Mueller Hinton agar, 16 to 18 hours at 37°C
[3] = Kl.aerog. 1522E, Mueller Hinton agar, 16 to 18 hours at 37°C
[4] = Str.faecium D, Mueller Hinton agar, 16 to 18 hours at 37°C

SMILES	MIC (Bac.subt. ATCC6633) [µg/mL]	MIC (E.coli 055) [µg/mL]	MIC (E.coli 1507E; [1]) [µg/mL]	MIC (E.coli DC0) [µg/mL]	MIC (E.coli DC2) [µg/mL]	MIC (E.coli KN126) [µg/mL]	MIC (E.coli TEM) [µg/mL]	MIC (Ent.cloacae 1321E; [2]) [µg/mL]	MIC (Ent.cloacae P99) [µg/mL]	MIC (Kl.aerog. 1082E) [µg/mL]	MIC (Kl.aerog. 1522E; [3]) [µg/mL]	MIC (Staph.aureus 285) [µg/mL]	MIC (Staph.aureus 503) [µg/mL]	MIC (Staph.aureus SG511) [µg/mL]	MIC (Str.faecium D; [4]) [µg/mL]	MIC (Str.pyogenes 308A) [µg/mL]	MIC (Str.pyogenes 77A) [µg/mL]	MIC (E.coli 1507E; 1507E) [µg/mL]	MIC (Ent.cloacae 1321E; 1321E) [µg/mL]	MIC (Kl.aerog. 1522E) [µg/mL]	other results
C[C@@H](O)[C@H]1C(=O)N2C(C(=O)O)=C(c3cccc(C(N)=O)c3)S[C@H]12 [Example 3-CONH2, 5R,3-(3-aminocarbonylphenyl)-6S-(1R-hydroxyethyl)-7-oxo-4-thia-l-azabicyclo[3.2.0]hept-2-ene-2-carboxylate]	0.05 (≈ 0.15 µM)	0.1 (≈ 0.299 µM)	0.19 (≈ 0.568 µM)	0.39 (≈ 1.17 µM)	0.1 (≈ 0.299 µM)	0.1 (≈ 0.299 µM)	0.19 (≈ 0.568 µM)	0.1 (≈ 0.299 µM)	1.56 (≈ 4.67 µM)	0.1 (≈ 0.299 µM)	0.19 (≈ 0.568 µM)	0.1 (≈ 0.299 µM)	0.1 (≈ 0.299 µM)	0.05 (≈ 0.15 µM)	1.56 (≈ 4.67 µM)	0.006 (≈ 0.0179 µM)	0.013 (≈ 0.0389 µM)				
C[C@@H](O)[C@H]1C(=O)N2C(C(=O)O)=C(c3cccc(NC=O)c3)S[C@H]12 [Example 3-NHCHO, 3-(3-formylaminophenyl)-6-(1-hydroxyethyl)-7-oxo-4-thia-l-azabicyclo[3.2.0]hept-2-ene 2-carboxylic acid]	0.1 (≈ 0.299 µM)	0.39 (≈ 1.17 µM)	0.78 (≈ 2.33 µM)	1.56 (≈ 4.67 µM)	0.39 (≈ 1.17 µM)	0.39 (≈ 1.17 µM)	0.78 (≈ 2.33 µM)	0.39 (≈ 1.17 µM)	12.5 (≈ 37.4 µM)	0.39 (≈ 1.17 µM)	0.39 (≈ 1.17 µM)	0.19 (≈ 0.568 µM)	0.19 (≈ 0.568 µM)	0.1 (≈ 0.299 µM)	1.56 (≈ 4.67 µM)	< 0.025	< 0.025				
CSc1cccc(C2=C(C(=O)O)N3C(=O)[C@H]([C@@H](C)O)[C@H]3S2)c1 [Example 3-SCH3]	0.05 (≈ 0.148 µM)	3.13 (≈ 9.28 µM)		12.5 (≈ 37 µM)	0.39 (≈ 1.16 µM)	6.25 (≈ 18.5 µM)	6.25 (≈ 18.5 µM)		50 (≈ 148 µM)	0.39 (≈ 1.16 µM)		0.19 (≈ 0.563 µM)	0.19 (≈ 0.563 µM)	0.1 (≈ 0.296 µM)	1.56 (≈ 4.62 µM)	< 0.05	< 0.05	6.25 (≈ 18.5 µM)	6.25 (≈ 18.5 µM)	6.25 (≈ 18.5 µM)	
CC(O)C1C(=O)N2C(C(=O)O)=C(c3ccc(C(N)=O)cc3)SC12 (centres unmarked) [Example 4-CONH2, 3-(4-aminocarbonylphenyl)-6-(1-hydroxyethyl)-7-oxo-4-thia-1-azabicyclo[3.2.0]hept-2-ene 2-carboxylic acid]	0.05 (≈ 0.15 µM)	0.19 (≈ 0.568 µM)	0.39 (≈ 1.17 µM)	0.78 (≈ 2.33 µM)	0.39 (≈ 1.17 µM)	0.39 (≈ 1.17 µM)	0.39 (≈ 1.17 µM)	0.39 (≈ 1.17 µM)	6.25 (≈ 18.7 µM)	0.39 (≈ 1.17 µM)	0.39 (≈ 1.17 µM)	0.1 (≈ 0.299 µM)	0.1 (≈ 0.299 µM)	0.05 (≈ 0.15 µM)	1.56 (≈ 4.67 µM)	0.013 (≈ 0.0389 µM)	0.013 (≈ 0.0389 µM)				
C[C@@H](O)[C@H]1C(=O)N2C(C(=O)O)=C(c3ccc(Cl)cc3)S[C@H]12 [Example 4-Cl]	0.05 (≈ 0.153 µM)	3.13 (≈ 9.61 µM)		25 (≈ 76.7 µM)	0.39 (≈ 1.2 µM)	12.5 (≈ 38.4 µM)	12.5 (≈ 38.4 µM)		50 (≈ 153 µM)	0.78 (≈ 2.39 µM)		0.1 (≈ 0.307 µM)	0.1 (≈ 0.307 µM)	0.05 (≈ 0.153 µM)	1.56 (≈ 4.79 µM)	< 0.05	< 0.05	12.5 (≈ 38.4 µM)	6.25 (≈ 19.2 µM)	12.5 (≈ 38.4 µM)	MIC (Salm.typh. MZII): 6.25 µg/mL (≈ 19.2 µM)
C[C@@H](O)[C@H]1C(=O)N2C(C(=O)O)=C(c3ccc(F)cc3)S[C@H]12 [Example 4-F]	0.1 (≈ 0.323 µM)	1.56 (≈ 5.04 µM)		25 (≈ 80.8 µM)	1.56 (≈ 5.04 µM)	6.25 (≈ 20.2 µM)	6.25 (≈ 20.2 µM)		25 (≈ 80.8 µM)	1.56 (≈ 5.04 µM)	12.5 (≈ 40.4 µM)	0.19 (≈ 0.614 µM)	0.19 (≈ 0.614 µM)	0.19 (≈ 0.614 µM)		< 0.05	< 0.05	6.25 (≈ 20.2 µM)	3.13 (≈ 10.1 µM)		MIC (Salm.typh. MZII): 3.13 µg/mL (≈ 10.1 µM); MIC (Str.faecium D): 3.13 µg/mL (≈ 10.1 µM)
C[C@@H](O)[C@H]1C(=O)N2C(C(=O)O)=C(c3ccc(NC=O)cc3)S[C@H]12 [Example 4-NHCHO]	0.025 (≈ 0.0748 µM)	0.19 (≈ 0.568 µM)	0.39 (≈ 1.17 µM)	0.78 (≈ 2.33 µM)	0.19 (≈ 0.568 µM)	0.39 (≈ 1.17 µM)	0.39 (≈ 1.17 µM)	0.39 (≈ 1.17 µM)	6.25 (≈ 18.7 µM)	0.19 (≈ 0.568 µM)	0.39 (≈ 1.17 µM)	0.1 (≈ 0.299 µM)	0.1 (≈ 0.299 µM)	0.05 (≈ 0.15 µM)	0.78 (≈ 2.33 µM)	< 0.013	< 0.013				
CSc1ccc(C2=C(C(=O)O)N3C(=O)[C@H]([C@@H](C)O)[C@H]3S2)cc1 [Example 4-SCH3]	0.1 (≈ 0.296 µM)	6.25 (≈ 18.5 µM)	25 (≈ 74.1 µM)	50 (≈ 148 µM)	0.78 (≈ 2.31 µM)	12.5 (≈ 37 µM)	25 (≈ 74.1 µM)		50 (≈ 148 µM)	0.78 (≈ 2.31 µM)	25 (≈ 74.1 µM)	0.19 (≈ 0.563 µM)	0.19 (≈ 0.563 µM)		3.13 (≈ 9.28 µM)	< 0.05	< 0.05		12.5 (≈ 37 µM)		MIC (Salm.typh. MZII): 12.5 µg/mL (≈ 37 µM)
C[C@@H](O)[C@H]1C(=O)N2C(C(=O)O)=C(c3ccccc3)S[C@H]12 [H]	0.1 (≈ 0.343 µM)	0.78 (≈ 2.68 µM)		3.12 (≈ 10.7 µM)	0.39 (≈ 1.34 µM)	3.12 (≈ 10.7 µM)	1.56 (≈ 5.35 µM)		12.5 (≈ 42.9 µM)	0.78 (≈ 2.68 µM)		0.19 (≈ 0.652 µM)	0.1 (≈ 0.343 µM)	0.1 (≈ 0.343 µM)		< 0.05	< 0.05	1.56 (≈ 5.35 µM)	1.56 (≈ 5.35 µM)	1.56 (≈ 5.35 µM)	MIC (Str.faecium D): 1.56 µg/mL (≈ 5.35 µM)
